The subject of one experiment is Candida albicans. The experiment is described as follows: Antifungal activity against Candida albicans ATCC 14503 after 24 hrs by microbroth dilution method. In kind it is functional. The settings on record: ATCC 14503, 24 h. (Broth dilution looks for growth in wells or tubes with falling amounts of substance.)
Experiment [1] concerns Cryptococcus gattii species complex. The experiment is described as follows: Antifungal activity against Cryptococcus gattii after 24 hrs by microbroth dilution method. In kind it is functional, Cryptococcus bacillisporus.
Experiment [2] can be described thus: Antifungal activity against Candida glabrata after 24 hrs by microbroth dilution method. In kind it is functional. To be noted: Nakaseomyces glabratus.
Experiment [3] is described as follows: Antifungal activity against Candida krusei after 24 hrs by microbroth dilution method. The settings on record: Pichia kudriavzevii. In kind it is functional.
A short description of experiment [4]: Antifungal activity against Trichophyton rubrum MRL666 after 72 hrs by CLSI M38-A method. In kind it is functional.

Here are results for seven compounds from ChEMBL document CHEMBL3862018, “Structure-activity of antifungal compounds inspired by aminobisabolenes from the sponge Halichondria sp” (2016).

A word on the MIC90: it is the lowest concentration that inhibits either 90% of growth or 90% of the strains tested, depending on the study. Read a high MIC90 as lower susceptibility.

The structures appear in SMILES notation. Converted amounts (≈) assume the structure as drawn.

For `CC(C)=CCC[C@](C)(N)[C@H]1CC=C(C)CC1`, the MIC90 against Candida albicans was 72 µM (≈ 15.9 µg/mL); in experiment [1] it was 53 µM (≈ 11.7 µg/mL); in experiment [2], 38 µM (≈ 8.41 µg/mL); in experiment [3], 36 µM (≈ 7.97 µg/mL); in experiment [4], 17 µM (≈ 3.76 µg/mL).
As to `CC(C)=CCC[C@@](C)([C@H]1CC=C(C)CC1)N(C)Cc1cccc2ccccc12`, the MIC90 (in the experiment on Candida albicans; in experiment [1]; in experiment [4]) was above 250 µM throughout.
Turning to `CC(C)=CCC[C@](C)(NCc1cccc2ccccc12)[C@H]1CC=C(C)CC1`, the MIC90 was above 250 µM with Candida albicans, above 250 µM in experiment [1] and 70 µM (≈ 25.3 µg/mL) in experiment [4].
As for `CC(C)CCC[C@](C)(N)C1CCC(C)CC1` (some centres not stated), the MIC90 in the experiment on Candida albicans is 50 µM (≈ 11.3 µg/mL); in experiment [1], 18 µM (≈ 4.06 µg/mL); in experiment [2] it was 18 µM (≈ 4.06 µg/mL); in experiment [3] it was 14 µM (≈ 3.16 µg/mL).
Take `C[C@@H]1[C@H](O)[C@@H](C)/C=C/C=C/C=C/C=C/C=C/C=C/C=C/[C@H](O[C@@H]2O[C@H](C)[C@@H](O)[C@H](N)[C@@H]2O)C[C@@H]2O[C@](O)(C[C@@H](O)C[C@@H](O)[C@H](O)CC[C@@H](O)C[C@@H](O)CC(=O)O[C@H]1C)C[C@H](O)[C@H]2C(=O)O` [AMPHOTERICIN B]: the MIC90 with Candida albicans was 0.3 µM (≈ 0.277 µg/mL); in experiment [1], 0.1 µM (≈ 0.0924 µg/mL); in experiment [2], 0.2 µM (≈ 0.185 µg/mL); in experiment [3], 0.5 µM (≈ 0.462 µg/mL).
The like results for `CN(C/C=C/C#CC(C)(C)C)Cc1cccc2ccccc12` [TERBINAFINE] were, in that order, above 250 µM, 5.3 µM (≈ 1.54 µg/mL), above 250 µM and above 250 µM.
In the case of `CC(C)CCC[C@@](C)(C1CCC(C)CC1)N(C)C` (some centres not stated), the MIC90 against Candida albicans was determined as 142 µM (≈ 36 µg/mL); in experiment [1], 31 µM (≈ 7.86 µg/mL); in experiment [2] it was 139 µM (≈ 35.2 µg/mL); in experiment [3], 58 µM (≈ 14.7 µg/mL).
